One compound from US6610471B1, “Methods and compositions to investigate infection by hepatitis B virus and agents to prevent and treat the infection” (priority 1998, dated 2003) can be followed below.

Each structure is given as a SMILES string. Where only a bound is given, the exact number is not on record here.

As a reminder, the inhibition is how much of the control response was suppressed.

The test system of this assay is HBV. Nature of the assay: Non protein-associated RC and CCC HBV DNA in HBV baculovirus infected HepG2 cells (Southern blot). In kind it is cell-based, hepatitis B virus. Particulars: for non protein-associated RC HBV DNA, % Untreated Control: 50 pfu/cell. As for the experimental part: On the indicated days (3, 6, and 9 days of drug treatment) HBV replication in HepG2 cultures was assessed by examining extracellular HBV DNA and intracellular replicative intermediates.
(T). […] Relaxed circular (RC) and covalently closed circular (CCC) HBV DNA is indicated. […] A conclusion from these studies is that the HBV baculovirus-HepG2 system can be used to complement other in vitro model systems currently used for testing antiviral compounds.
HepG2 cells were seeded at approximately 20% to 40% confluency and then were grown for 16 to 24 hours before infection. On the day of infection, duplicate plates of cells were trypsinized, and viable cell number was determined with a hemocytometer using Trypan blue exclusion. Average cell counts were calculated and used to determine the volume of high-titer viral stock necessary to infect cells at the indicated moi. Baculovirus was diluted into MEM-FBS to achieve the appropriate moi using volumes of 1.0 and 0.25 mL to infect 100-mm and 35-mm dishes, respectively. Baculovirus was adsorbed to HepG2 cells for one hour at 37° C. with gentle rocking every 15 minutes to ensure that the inoculum was evenly distributed. The inoculum was then aspirated and HepG2 cells were washed two times with phosphate-buffered saline and refed MEM-FBS.
Nonprotein-bound circular HBV genomes were extracted from HepG2 cells after infection by a high salt extraction of low molecular weight DNA followed by a phenol and chloroform extraction. Nucleic acids were resuspended in 50 μL of water and normalized by OD260. All samples were treated with 100 μg/mL RNase and 30 U of Plasmid-Safe ATP-Dependent DNase (Epicenter Technologies, Madison, Wis.). After a two-hour incubation at 37° C., Plasmid-Safe DNase was heat inactivated at 65° C. according to the manufacturer's instructions. Each sample was separated into two aliquots and one aliquot was digested with Xhol for one hour at 37° C. Samples were analyzed by electrophoresis and Southern blotting.
3TC was a gift of BioChem Therapeutic Inc. (Laval, Quebec, Canada). […] Medium containing 3TC was prepared daily as needed using fresh aliquots of 3TC.

On to `Nc1ccn([C@@H]2CS[C@H](CO)O2)c(=O)n1` [3TC, (−)-2′-dideoxy-3′-thiacytidine], for which the “non protein-associated RC HBV DNA, % Untreated Control” value runs as follows: (0.02 μM 3TC, P (from 16 h prior to infection), day 4 p.i. (3 days treatment)) 60.9 % Untreated Control; (0.02 μM 3TC, P (from 16 h prior to infection), day 7 p.i. (6 days treatment)) 45.2 % Untreated Control; (0.02 μM 3TC, T (from 24 h p.i.), day 4 p.i. (3 days treatment)) 48.8 % Untreated Control; (0.02 μM 3TC, T (from 24 h p.i.), day 7 p.i. (6 days treatment)) 40.2 % Untreated Control; (0.2 μM 3TC, P (from 16 h prior to infection), day 4 p.i. (3 days treatment)) 8.6 % Untreated Control; (0.2 μM 3TC, P (from 16 h prior to infection), day 7 p.i. (6 days treatment)) 10.5 % Untreated Control. The “non protein-associated RC HBV DNA, % Untreated Control” value amounted to 17.3 % Untreated Control (0.2 μM 3TC, T (from 24 h p.i.), day 4 p.i. (3 days treatment)); 10.9 % Untreated Control (0.2 μM 3TC, T (from 24 h p.i.), day 7 p.i. (6 days treatment)); 3.2 % Untreated Control (2.0 μM 3TC, P (from 16 h prior to infection), day 4 p.i. (3 days treatment)); 5.6 % Untreated Control (2.0 μM 3TC, P (from 16 h prior to infection), day 7 p.i. (6 days treatment)); 6.8 % Untreated Control (2.0 μM 3TC, T (from 24 h p.i.), day 4 p.i. (3 days treatment)); 6.7 % Untreated Control (2.0 μM 3TC, T (from 24 h p.i.), day 7 p.i. (6 days treatment)). Further, the inhibition at 2 µM (Hepatitis B virus, HepG2, read-out: inhibition of non protein-associated RC HBV DNA production) is greater than 90%.
